Laboratory results taken from US20100298141A1, “SUBSTITUTED PYRIDINE N-OXIDE HERBICIDES” (E. I. DU PONT DE NEMOURS AND COMPANY, priority 2007, published 2010).

How the values were obtained:
[1] = tested on: barnyardgrass; assay: Test A pre-/postemergence greenhouse test; format: in vivo, Echinochloa crus-galli; settings: for Plant response rating, Barnyardgrass: 0 to 100 scale where 0 is no effect and 100 is complete control; for Barnyardgrass plant response rating: 0 to 100 scale
Procedure, shortened: (§1)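 Test compounds in non-phytotoxic solvent with surfactant were applied as a preemergence soil spray to seeded loam/sand pots and, concurrently, postemergence to plants at 2–10 cm, one- to two-leaf stage. About ten days in greenhouse, then injury visually rated against untreated controls.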

[2] = tested on: velvetleaf; assay: Test A pre-/postemergence greenhouse test; format: in vivo, Abutilon theophrasti; settings: for Plant response rating, Velvetleaf: 0 to 100 scale where 0 is no effect and 100 is complete control; for Velvetleaf plant response rating: 0 to 100 scale
Procedure, shortened: as §1

[3] = tested on: green foxtail; assay: Test C pre-/postemergence test; format: in vivo, Setaria viridis
From the text: (§2) Seeds of plant species selected from blackgrass (Alopecurus myosuroides), downy brome (Bromus tectorum), green foxtail (Setaria viridis), Italian ryegrass (Lolium multiflorum), wheat (Triticum aestivum), wild oat (Avena fatua), catchweed bedstraw (Galium aparine), Russian thistle (Salsola kali), […] (Cynodon dactylon), Surinam grass (Brachiaria decumbens), cocklebur (Xanthium strumarium), corn (Zea mays), crabgrass (Digitaria sanguinalis), woolly cupgrass (Eriochloa villosa), giant foxtail (Setaria faberii), Goosegrass (Eleusin indica), johnsongrass (Sorghum halepense), kochia (Kochia scoparia), lambsquarters (Chenopodium album), morningglory (Ipomoea coccinea), eastern black nightshade (Solanum ptycanthum), yellow nutsedge (Cyperus esculentus), pigweed (Amaranthus retroflexus), common ragweed (Ambrosia elation), soybean (Glycine max), common (oilseed) sunflower (Helianthus annuus), and velvetleaf (Abutilon theophrasti) were planted and treated preemergence with test chemicals formulated in a non-phytotoxic solvent mixture which included a surfactant. At the same time, plants selected from these crop and weed species and also winter barley (Hordeum vulgare), canarygrass (Phalaris minor), and chickweed (Stellaria media) were treated with postemergence applications of some of the test chemicals formulated in the same manner. Plants ranged in height from 2 to 18 cm (1- to 4-leaf stage) for postemergence treatments. […] At time of treatment, test pots were flooded to 3 cm above the soil surface, treated by application of test compounds directly to the paddy water, and then maintained at that water depth for the duration of the test. […] A dash (-) response means no test result.

[4] = tested on: Italian ryegrass; assay: Test C pre-/postemergence test; format: in vivo, Lolium multiflorum
From the text: as §2

[5] = tested on: goosegrass; assay: Test F preemergence test; format: in vivo, Eleusine indica; settings: scale 0 to 100
From the text: (§3) Seeds of plant species selected from bermudagrass (Cynodon dactylon), Surinam grass (Brachiaria decumbens), large crabgrass (Digitaria sanguinalis), green foxtail (Setaria viridis), goosegrass (Eleusine indica), johnsongrass (Sorghum halepense), kochia (Kochia scoparia), pitted morningglory (Ipomoea lacunosa), purple nutsedge (Cyperus rotundus), common ragweed (Ambrosia elation), mustard (Brassica nigra), guineagrass (Panicum maximum), […] (Paspalum dilatatum), barnyardgrass (Echinochloa crus-galli), southern sandbur (Cenchrus echinatus), common sowthistle (Sonchus oleraceous), prickly […] spinosa), Italian ryegrass (Lolium multiflorum), common purslane (Portulaca oleracea), broadleaf signalgrass (Brachiaria platyphylla), common groundsel (Senecio vulgaris), common chickweed (Stellaria media), Virginia dayflower (Commelina virginica), annual bluegrass (Poa annua), naked crabgrass (Digitaria nuda), […] cochinchinensis), quackgrass (Elytrigia repens), Canada horseweed (Conyza canadensis), field bindweed (Convolvulus arvensis), […] (Bidens bipinnata), common mallow (Malva sylvestris), Russian thistle (Salsola kali), and sugarcane (Saccharum officinarum) were planted and treated preemergence with test chemicals formulated in a non-phytotoxic solvent mixture which included a surfactant. At a different time, sugarcane was treated with postemergence applications of some of the test chemicals formulated in the same manner. Plants were approximately 3- to 4-leaf stage for the postemergence treatments. Treated plants and controls were maintained in a greenhouse for 14 to 21 days, after which time all species were compared to controls and visually evaluated. […] A dash (-) response means no test result.

[6] = tested on: johnsongrass; assay: Test F preemergence test; format: in vivo, Sorghum halepense; settings: scale 0 to 100
From the text: as §3

[7] = tested on: kochia; assay: Test F preemergence test; format: in vivo, Kochia scoparia; settings: scale 0 to 100
From the text: as §3

[8] = tested on: purple nutsedge; assay: Test F preemergence test; format: in vivo, Cyperus rotundus; settings: scale 0 to 100
From the text: as §3

[9] = tested on: dallisgrass; assay: Test F preemergence test; format: in vivo, Paspalum dilatatum; settings: scale 0 to 100
From the text: as §3

[10] = tested on: broadleaf signalgrass; assay: Test F preemergence test; format: in vivo, Brachiaria platyphylla; settings: scale 0 to 100
From the text: as §3

[11] = tested on: common groundsel; assay: Test F preemergence test; format: in vivo, Senecio vulgaris; settings: scale 0 to 100
From the text: as §3

[12] = tested on: itchgrass; assay: Test F preemergence test; format: in vivo, Rottboellia cochinchinensis; settings: scale 0 to 100
From the text: as §3

[13] = Postemergence, 500 g ai/ha, 0 is no effect, 100 is complete control
[14] = Preemergence, 125 g ai/ha, 0 no effect, 100 complete control
[15] = 62 g ai/ha, Preemergence, scale 0 to 100
[16] = 125 g ai/ha, preemergence, scale 0 (no effect) to 100 (complete control)
[17] = Preemergence, 31 g ai/ha, scale 0 to 100 (0 no effect, 100 complete control)
[18] = preemergence, 250 g ai/ha, scale 0 (no effect) to 100 (complete control)

For `Cn1nc(OC(F)F)c(CS(=O)(=O)c2cccc[n+]2[O-])c1C(F)(F)F` [Compound 80], which “Plant response rating, Barnyardgrass” value ([1]; Postemergence, 125 g ai/ha) is on record?
The value was 80.

And the “Barnyardgrass plant response rating” value [1, 13]?
The value was 90.

What about the “Barnyardgrass plant response rating” value [1, 14] of the same molecule?
Its value is 90.

And the “Plant response rating, Barnyardgrass” value ([1]; Preemergence, 500 g ai/ha)?
Its value is 100.

And the “Plant response rating, Velvetleaf” value ([2]; Postemergence, 125 g ai/ha)?
Its value is 0.

What about the “Velvetleaf plant response rating” value [2, 13] of the same molecule?
The value was 60.

What about the “Velvetleaf plant response rating” value [2, 14] of the same molecule?
Its value is 0.

What about the “Plant response rating, Velvetleaf” value ([2]; Preemergence, 500 g ai/ha) of the same molecule?
The value was 70.

And the “Foxtail, Green plant response rating” value [3, 15]?
The value was 85.

What about the “Foxtail, Green plant response rating” value [3, 16] of the same molecule?
The value was 100.

And the “Plant response rating, Foxtail, Green” value [3, 17]?
Its value is 85.

And the “Foxtail, Green plant response rating” value [3, 18]?
Its value is 100.

And the “Ryegrass, Italian plant response rating” value [4, 15]?
Its value is 70.

What about the “Ryegrass, Italian plant response rating” value [4, 16] of the same molecule?
Its value is 85.

And the “Plant response rating, Ryegrass, Italian” value [4, 17]?
Its value is 0.

And the “Ryegrass, Italian plant response rating” value [4, 18]?
The value was 90.

What about the “Plant response rating, Goosegrass” value ([5]; 16 g ai/ha, preemergence) of the same molecule?
The value was 80.

And the “Goosegrass plant response rating” value ([5]; 62 g ai/ha, Preemergence)?
Its value is 95.

What about the “Goosegrass plant response rating” value ([5]; 125 g ai/ha, preemergence) of the same molecule?
Its value is 100.

What about the “Plant response rating, Goosegrass” value ([5]; Preemergence, 31 g ai/ha) of the same molecule?
Its value is 85.

What about the “Plant response rating, Johnsongrass” value ([6]; 16 g ai/ha, preemergence) of the same molecule?
Its value is 50.

What about the “Johnsongrass plant response rating” value ([6]; 62 g ai/ha, Preemergence) of the same molecule?
Its value is 90.

And the “Johnsongrass plant response rating” value ([6]; 125 g ai/ha, preemergence)?
The value was 98.

What about the “Plant response rating, Johnsongrass” value ([6]; Preemergence, 31 g ai/ha) of the same molecule?
The value was 75.

And the “Plant response rating, Kochia” value ([7]; 16 g ai/ha, preemergence)?
Its value is 0.

What about the “Kochia plant response rating” value ([7]; 62 g ai/ha, Preemergence) of the same molecule?
Its value is 35.

And the “Kochia plant response rating” value ([7]; 125 g ai/ha, preemergence)?
The value was 90.

And the “Plant response rating, Kochia” value ([7]; Preemergence, 31 g ai/ha)?
The value was 0.

What about the “Plant response rating, Purple Nutsedge” value ([8]; 16 g ai/ha, preemergence) of the same molecule?
The value was 0.

What about the “Purple Nutsedge plant response rating” value ([8]; 62 g ai/ha, Preemergence) of the same molecule?
The value was 50.

What about the “Purple Nutsedge plant response rating” value ([8]; 125 g ai/ha, preemergence) of the same molecule?
Its value is 80.

What about the “Plant response rating, Dallisgrass” value ([9]; 16 g ai/ha, preemergence) of the same molecule?
The value was 40.

And the “Dallisgrass plant response rating” value ([9]; 62 g ai/ha, Preemergence)?
Its value is 95.

What about the “Dallisgrass plant response rating” value ([9]; 125 g ai/ha, preemergence) of the same molecule?
Its value is 100.

And the “Plant response rating, Dallisgrass” value ([9]; Preemergence, 31 g ai/ha)?
The value was 80.

What about the “Plant response rating, Signalgrass” value ([10]; 16 g ai/ha, preemergence) of the same molecule?
The value was 25.

What about the “Signalgrass plant response rating” value ([10]; 125 g ai/ha, preemergence) of the same molecule?
The value was 98.

And the “Plant response rating, Signalgrass” value ([10]; Preemergence, 62 g ai/ha)?
The value was 75.

And the “Plant response rating, Signalgrass” value ([10]; Preemergence, 31 g ai/ha)?
Its value is 25.

What about the “Groundsel plant response rating” value ([11]; 62 g ai/ha, Preemergence) of the same molecule?
Its value is 0.

And the “Groundsel plant response rating” value ([11]; 125 g ai/ha, preemergence)?
Its value is 50.

And the “Plant response rating, Groundsel” value ([11]; Preemergence, 31 g ai/ha)?
The value was 0.

And the “Plant response rating, Itchgrass” value ([12]; 16 g ai/ha, preemergence)?
The value was 10.

And the “Itchgrass plant response rating” value ([12]; 62 g ai/ha, Preemergence)?
The value was 60.

And the “Itchgrass plant response rating” value ([12]; 125 g ai/ha, preemergence)?
Its value is 90.

And the “Plant response rating, Itchgrass” value ([12]; Preemergence, 31 g ai/ha)?
Its value is 20.
